Structures are written as SMILES.

The test system of experiment [1] is Food Plot Clover Mix. As to the kind of experiment: Greenhouse flats, plant growth (sprouts, harvest weight, % of control): Food Plot Clover Mix, Flats 1-16 (Tables 2, 3). The format is in vivo, mixture of clovers. As to conditions: Flat 13, Clover Mix 5.2 g seed/flat. As to the method:
(§1) Sixty-four sample flats were analyzed. Empty flats were filled with about 0.25 cubic feet of Miracle Gro Soil per flat (a complete soil with enough macro-nutrients, nitrogen, phosphorus and potash to feed the plants for 3-4 months). The seeds were planted and then the seeded soil treated. Flats were watered daily. Progress was documented weekly. This number of flats resulted from running a number of positive controls and several levels of the chelated cobalt lactate per plant selection or choice.
(§2) The makeup of 64 flats was 8 sections times 8 flats per section. The first 8 flats were planted with a mixture of clovers. Flats 9-16 were also planted with the clover mixture at 5.2 grams seed/flat versus 2.6 grams seed/flat in 1-8. Flats 17-24 were planted with Fast & Fine Seed at 2.6 grams/flat, equivalent to the seeding rate from 2008. Fast & Fine Premium Grass Seed is a commercial mixture of Indy Perennial Ryegrass, Silver Dollar Perennial Ryegrass, Boreal Creeping Red Fescue, Kelly Kentucky Bluegrass and Clearwater Kentucky Bluegrass. Flats 25-32 were planted with a mixture including green globe turnips, dwarf Essex forage rapeseed, Rangi forage and giant rapeseed. Flats 33-40 were planted with a mixture of seeds including hybrid sunflower, grain sorghum, Proso millet and buck-wheat, at 5.2 grams/flat. […]

For experiment [2], the system named is Fast & Fine Premium Grass Seed. The experiment is described as follows: Greenhouse flats, plant growth: Fast & Fine Grass seed, Flats 17-24 (Table 4). The format is in vivo, Perennial Ryegrass, Creeping Red Fescue, Kentucky Bluegrass. As to conditions: 1 ppm applied to the soil; second year. The procedure:
as §1, §2

Experiment [3] has as its system grass. As to the kind of experiment: Growth of grass with cobalt lactate applied in the soil or sprayed (Example 1, Table 1). It counts as in vivo. An excerpt:
In Table 1, the growth of grass when cobalt lactate was applied either in the soil (before seeding) or sprayed directly onto the grass once growing is shown for the various levels of cobalt (0, 1, 10, 100 and 1000 ppm) that was applied. Following growth 2, cuttings were made then the total weight of grass was shown for the various treatments. […] All work was done with a fully complete soil with respect to nitrogen, phosphorus and potash (Miracle Gro Soil), so that the only difference in the greenhouse flats was the applied cobalt level and the manner in which it was applied.

Experiment [4] deals with ruminal microorganisms. As to the kind of experiment: Effect of cobalt on methane, pH, ammonia-N, and digestibility in continuous cultures of ruminal microorganisms (Table 10). The format is cell-based. To be noted: for IVDMTD (in vitro dry matter true digestibility), %: 24 h incubation; for Culture pH, Post-feeding / Methane, nmol/ml, Post-feeding: average of samples at 1, 2, 4 and 6 h after AM feeding; for Culture pH, Pre-feeding / Methane, nmol/ml, Pre-feeding: samples taken at 0 hours. The procedure:
Ammonia-N concentrations were not affected (P>0.10) by dietary treatments. […] There was a source x level interaction (P<0.001) for neutral detergent fiber (NDF) digestibility (Table 6). […] Earlier studies reported no effect on DM and NDF digestibility when Co was added at the 5.0 or 10.0 ppm levels.

Setting [5] is: Cobalt Medium DI H2O (spray), Target Cobalt Level 1 ppm.
[6] abbreviates: Cobalt Medium DI H2O (spray), Target Cobalt Level 10 ppm.
Where [7] appears, read: Cobalt Medium DI H2O (spray), Target Cobalt Level 100 ppm.
[8] abbreviates: Cobalt Medium DI H2O (spray), Target Cobalt Level 1000 ppm.
The mark [9] stands for this setting: Cobalt Medium Soil, Target Cobalt Level 1 ppm.
[10] abbreviates: Cobalt Medium Soil, Target Cobalt Level 10 ppm.
[11] abbreviates: Cobalt Medium Soil, Target Cobalt Level 100 ppm.
[12] abbreviates: Cobalt Medium Soil, Target Cobalt Level 1000 ppm.

`CC(O)C(=O)[O-].CC(O)C(=O)[O-].[Co+2]` (stereo not shown) [cobalt lactate]: in experiment [1], the “Growth ahead of the positive control (Delt Ag)” value came out at 13%. For the same molecule, the Grass growth entry in experiment [2] was “double the grass growth”. The “Grass Cuttings Weight (gms, 1st)” value in experiment [3] (setting [5]) is listed as 15.7 gms; in experiment [3] (setting [6]), 17.76 gms; in experiment [3] (setting [7]) it was 18.56 gms; in experiment [3] (setting [8]) it was 24.03 gms; in experiment [3] (setting [9]) it was 31.06 gms; in experiment [3] (setting [10]), 22.8 gms. The results for the “Grass Cuttings Weight (gms, 1st)” value in experiment [3] (setting [11]) and in experiment [3] (setting [12]) were 16.33 gms and 5.15 gms, respectively. Besides, the “Grass Cuttings Weight (gms, 2nd)” value was determined as 13.9 gms in experiment [3] (setting [5]); 14.37 gms in experiment [3] (setting [6]); 26.57 gms in experiment [3] (setting [7]); 15.44 gms in experiment [3] (setting [8]); 22.73 gms in experiment [3] (setting [9]); 31.41 gms in experiment [3] (setting [10]). Moreover, the “Grass Cuttings Weight (gms, 2nd)” value was 10.12 gms in experiment [3] (setting [11]) and 1.81 gms in experiment [3] (setting [12]). For the same molecule, the “Sum Grass Cuttings Weight (gms, 1st + 2nd)” value is on record as 29.6 gms in experiment [3] (setting [5]); 32.13 gms in experiment [3] (setting [6]); 45.13 gms in experiment [3] (setting [7]); 39.47 gms in experiment [3] (setting [8]); 53.79 gms in experiment [3] (setting [9]); 54.21 gms in experiment [3] (setting [10]). Moreover, the “Sum Grass Cuttings Weight (gms, 1st + 2nd)” value stood at 26.45 gms in experiment [3] (setting [11]) and 6.96 gms in experiment [3] (setting [12]). Moreover, in experiment [3] (applied in the soil at 1 or 10 ppm or applied by spray at 100 ppm), the Growth of grass entry is listed as “roughly doubled”.
As to `O=C([O-])[O-].[Co+2]` [Cobalt Carbonate, cobalt carbonate], in experiment [4] (0.2 ppm), the “Ammonia-N” value is reported as 10.79 mg/dL; the “NDF Digestibility, %” value is 23.16%; the “IVDMTD (in vitro dry matter true digestibility), %” value is listed as 59.35%; the “Culture pH, Post-feeding” value stood at 5.56. For the same molecule, in experiment [4] (0.2 ppm), the “Methane, nmol/ml, Post-feeding” value amounted to 403.14 nmol/mL; the “Culture pH, Pre-feeding” value worked out at 5.81; the “Methane, nmol/ml, Pre-feeding” value worked out at 363.91 nmol/mL. Moreover, in experiment [4] (1.0 ppm), the “Ammonia-N” value is given as 10.88 mg/dL; the “NDF Digestibility, %” value is recorded as 17.09%; the “IVDMTD (in vitro dry matter true digestibility), %” value stood at 59.17%; the “Culture pH, Post-feeding” value is given as 5.55. Besides, in experiment [4] (1.0 ppm), the “Methane, nmol/ml, Post-feeding” value was 515.35 nmol/mL; the “Culture pH, Pre-feeding” value is on record as 5.88; the “Methane, nmol/ml, Pre-feeding” value worked out at 347.82 nmol/mL. Also, the “Effect on NDF digestibility” value in experiment [4] (1.0 ppm level) is given as “negative effect”. For the same molecule, the “Effect on methane concentration” value in experiment [4] (continuous cultures, P>0.10 for no effect) is “significant negative impact”.

Values taken from patent US11078127B2, “Organically chelated mineral compositions and methods thereof” (Ralco Nutrition, Inc., priority 2009, dated 2021).
